For assay [1], the target named is human A2a receptor (Homo sapiens (Human), UniProt P29274). Nature of the assay: A2a competition binding assay using Scintillation Proximity technology. As for the experimental part:
(§1) Binding affinities of compounds of the invention for the human A2a receptor were determined in a competition binding assay using Scintillation Proximity technology. Thus, 1* μg, or preferably 0.25 μg of membranes from HEK293 cells expressing the human A2a receptor were incubated with a compound of the invention at concentrations ranging from 3000 nM to 0.15 nM in a reaction mixture containing also 0.5 nM of a tritiated form of 5-amino-7-[2-phenethyl]-2-(furan-2-yl)-7H-pyrazolo[4,3-e][1,2,4]triazolo[1,5-c]pyrimidine (the tritiated compound) and 25 μg of wheat germ agglutin-coated yttrium silicate SPA beads for one hour at room temperature with agitation. The beads were then allowed to settle to the bottom of the wells for 1 hr, after which the membrane-associated radioactivity was determined by scintillation counting in a TopCount microplate reader. Ki values were determined using the Cheng-Prusoff equation.
HEK293 cells expressing the human, rat, dog or monkey adenosine 2a receptor (Purchased from Perkin-Elmer # RBHA2AM400UA).
The Tritiated compound was prepared in-house by MRL Radiochemistry according to published methods.
Wheat germ agglutinin-coated yttrium silicate SPA beads (GE Healthcare #RPNQ0023). Dilute to 25 mg/ml in assay buffer.
Assay Buffer was prepared in house: Dulbecco's calcium and magnesium free phosphate buffered saline+10 mM MgCl2
Adenosine deaminase from calf intestine, 10 mg/2 ml (Roche #10 102 105 001).
A2a antagonist standard (9-chloro-1-(2-furanyl)-[1,2,4]triazolo1,5-c]quinazolin-5-amine from Tocris Bioscience)
Make eight 1:3 serial dilutions in 100% DMSO from a 3 mM compound stock
Transfer 50 nl of compound into a 384-well OptiPlate (Perkin Elmer).
Typically, final concentrations of compound used in the assay ranged from 3000 nM to 0.152 nM.
Dilute a solution of the Tritiated compound to 1.25 nM in assay buffer. This is a 2.5× solution. The final concentration in the assay is 0.5 nM. Calculate the concentration by counting two 5 μl aliquots.
Use *1 ug or preferrably 0.25 ug of membrane/well. Dilute membranes to 9.7 μg/ml in assay buffer. Treat with 20 ug/ml adenosine deaminase (ADA) for 15 minutes at room temperature to degrade endogenous adenosine.
Use 25 μg/well wheat germ agglutinin-coated yttrium silicate SPA beads.
Mix ADA-treated membranes and SPA beads together for 30 min prior to assay.
To the Perkin-Elmer Optiplate-384 containing the compound titration add 20 μl of 2.5× solution of the Tritiated compound and 30 μl of the membrane-bead mixture. Incubate for one hour at room temperature with agitation.
Include total binding (assay buffer+1% DMSO) and non-specific binding (CGS15943, 1 μM) wells.
Allow the beads to settle for one hour.
A curve fitting program (i.e., Prism, Activity Base, Chemcart) is used to determine the EC50. The Ki value is calculated using the Cheng-Prusoff equation. Ki=EC50/(1+(radioligand concentration/Kd))
Using the foregoing assay method, the Ki results were obtained using the compounds of the invention described in Tables IIIa, IIIb, and IV. Each example compound tested is reported in the following format: Example number: A2a Ki reported in nM. Thus, for example, the compound Ex-1 was determined to have an Ki using the above-described assay and calculations, of 10.0 nM.

Assay [2] concerns the target human A1 receptor (Homo sapiens (Human), UniProt P30542). The assay is described as follows: A1 competition binding assay using Scintillation Proximity technology; selectivity = A1 binding Ki / A2a binding Ki. As to conditions: A1 binding Ki divided by A2a binding Ki. The protocol: as §1, with “A1” for “A2a”, “5” for “1* μg, or preferably 0.25 μg”, “CHO-K1” for “HEK293”, “0.7” for “0.5”, “8-Cyclopentyl-1,3-dipropylxanthine” for “5-amino-7-[2-phenethyl]-2-(furan-2-yl)-7H-pyrazolo[4,3-e][1,2,4]triazolo[1,5-c]pyrimidine”, “in a similar fashion described with A2a binding.” for “using the Cheng-Prusoff equation.”
• Cells expressing the human, rat, dog or monkey adenosine 1 receptor (Purchased from Perkin-Elmer # ES-010-M400UA • [^3H]DPCPX (purchased from Perkin-Elmer NET-974, 8-cyclopentyl-1,3-dipropylxanthine, [dipropyl-2,3-^3H(N)]. • Wheatgerm agglutinin-coated yttrium silicate SPA beads (Purchased from GE Healthcare #RPNQ0023). Dilute to 25 mg/ml in assay buffer. Store at 4° C. • Assay Buffer—Dulbecco's phosphate buffered saline without calcium and without magnesium+10 mM MgCl2 • Adenosine deaminase from calf intestine, 10 mg/2 ml (Roche #10 102 105 001). • DMSO • DPCPX (A1 antagonist) from Tocris Bioscience Compound Dilution • Dilute compounds to 1 mM in 100% DMSO
Make serial dilutions as necessary (i.e., 1:10, 1:3) in 100% DMSO.
Dilute 1:20 into assay buffer (i.e. 3 ul into 57 ul buffer). This is a 5× solution in 5% DMSO.
• Dilute [^3H]DPCPX to 1.75 nM in assay buffer. This is a 2.5× solution. The final concentration in the assay is 0.7 nM. Calculate the concentration by counting two 5 ul aliquots. Membrane Preparation • Use 5 ug of membrane/well. Dilute membranes to 250 ug/ml in assay buffer. Treat with 20 ug/ml adenosine deaminase (ADA) for 15 minutes at room temperature to degrade endogenous adenosine. Membrane-Bead Mixture • Use 25 ug/well wheatgerm agglutinin-coated yttrium silicate SPA beads • Mix ADA-treated membranes and SPA beads together for 30 min prior to assay. Assay Assembly • Add in order to a Perkin-Elmer Optiplate-384: 10 ul of 5× compound, 20 ul of 2.5× [^3H]DPCPX, 20 ul membrane-bead mixture. Incubate for one hour at room temperature with agitation. • Include total binding (assay buffer+1% DMSO) and non-specific binding (DPCPX, 1 uM) wells. Counting and Calculations
For orientation: In a scintillation proximity assay essentially only radioactivity close to the scintillant gives light.

[3] abbreviates: 0.25 μg of membranes from HEK293 cells expressing the human A2a receptor.

This note sets out measurements from patent publication US10138212B2, “Aminoquinazoline compounds as A2A antagonist” (Merck Sharp & Dohme Corp., priority 2015, dated 2018).

What is called Ki is the dissociation constant of the complex between target and ligand, obtained from inhibition or displacement. Read a high Ki as weaker binding.

Chain of human A2a receptor (P29274 whole entry): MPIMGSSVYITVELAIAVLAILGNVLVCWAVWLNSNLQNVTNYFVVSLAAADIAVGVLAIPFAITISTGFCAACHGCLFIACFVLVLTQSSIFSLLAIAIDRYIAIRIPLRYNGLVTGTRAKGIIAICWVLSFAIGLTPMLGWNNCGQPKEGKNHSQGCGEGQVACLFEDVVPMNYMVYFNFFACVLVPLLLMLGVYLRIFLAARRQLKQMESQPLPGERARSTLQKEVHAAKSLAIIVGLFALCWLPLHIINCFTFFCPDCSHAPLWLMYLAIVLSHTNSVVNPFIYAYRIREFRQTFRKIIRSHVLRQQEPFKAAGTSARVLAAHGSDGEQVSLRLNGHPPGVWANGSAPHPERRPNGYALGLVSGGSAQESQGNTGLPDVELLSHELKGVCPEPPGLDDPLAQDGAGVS
Chain of human A1 receptor (P30542 whole entry): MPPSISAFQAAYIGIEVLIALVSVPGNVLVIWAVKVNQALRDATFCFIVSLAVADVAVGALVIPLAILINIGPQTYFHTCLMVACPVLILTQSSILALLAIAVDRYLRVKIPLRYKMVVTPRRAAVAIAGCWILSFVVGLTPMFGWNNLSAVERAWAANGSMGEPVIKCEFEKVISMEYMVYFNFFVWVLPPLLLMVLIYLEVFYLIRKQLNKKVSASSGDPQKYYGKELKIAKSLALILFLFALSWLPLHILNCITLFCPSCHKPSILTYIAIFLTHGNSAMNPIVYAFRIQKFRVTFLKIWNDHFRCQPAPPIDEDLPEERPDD

The molecule `COc1ccc(C(C)(C)O)nc1CNC(=O)c1nc(N)nc2c(OC)cccc12` [Example 1, 2-amino-N-[[6-(1-hydroxy-1-methyl-ethyl)-3-methoxy-2-pyridyl]methyl]-8-methoxy-quinazoline-4-carboxamide] yielded a Ki in assay [1] (setting [3]) of 10 nM. In assay [2], the “A2a selectivity (A2a A1 binding selectivity)” value (“A2a selectivity” for short) was 145.

On to `COc1cccc2c(C(=O)NCc3nc(C(C)(C)O)ccc3C)nc(N)nc12` [Example 2, 2-amino-N-[[6-(1-hydroxy-1-methyl-ethyl)-3-methyl-2-pyridyl]methyl]-8-methoxy-quinazoline-4-carboxamide], for which the Ki in assay [1] (setting [3]) turned out to be 0.6 nM. Further, the “A2a selectivity” value in assay [2] was 193.

In assay [1] (setting [3]), `COc1cccc2c(C(=O)NCc3cccc(C(C)(O)C(F)(F)F)n3)nc(N)nc12` (stereo not drawn) [Example 3, 2-amino-8-methoxy-N-[[6-(2,2,2-trifluoro-1-hydroxy-1-methyl-ethyl)-2-pyridyl]methyl]quinazoline-4-carboxamide] had a Ki of 0.5 nM. Moreover, the “A2a selectivity” value in assay [2] is 600.

Take `COc1cccc2c(C(=O)NCc3cccc(C4(O)CCC4)n3)nc(N)nc12` [Example 4, 2-amino-N-[[6-(1-hydroxycyclobutyl)-2-pyridyl]methyl]-8-methoxy-quinazoline-4-carboxamide]: in assay [1] (setting [3]), the affinity, expressed as Ki, was 0.6 nM. Further, the “A2a selectivity” value in assay [2] was determined as 314.

In turn, `COc1cccc2c(C(=O)NCc3cccc(C(C)C)n3)nc(N)nc12` [Example 5, 2-amino-N-[(6-isopropyl-2-pyridyl)methyl]-8-methoxy-quinazoline-4-carboxamide] returned a Ki in assay [1] (setting [3]) of 0.2 nM. Also, the “A2a selectivity” value in assay [2] is given as 146.

With `COc1cccc2c(C(=O)NCc3cccc(C4CCC4)n3)nc(N)nc12` [Example 6, 2-amino-N-[(6-cyclobutyl-2-pyridyl)methyl]-8-methoxy-quinazoline-4-carboxamide], in assay [1] (setting [3]), the inhibition constant Ki worked out at 0.2 nM. The “A2a selectivity” value in assay [2] came out at 102.

Regarding `COc1cccc2c(C(=O)NCc3cccc(C4CC4)n3)nc(N)nc12` [Example 7, 2-amino-N-[(6-cyclopropyl-2-pyridyl)methyl]-8-methoxy-quinazoline-4-carboxamide], the Ki in assay [1] (setting [3]) was determined as 0.3 nM. For the same molecule, in assay [2], the “A2a selectivity” value amounted to 169.

With `COc1cccc2c(C(=O)NCc3cccc(-c4cccc(O)c4)n3)nc(N)nc12` [Example 8, 2-amino-N-[[6-(3-hydroxyphenyl)-2-pyridyl]methyl]-8-methoxy-quinazoline-4-carboxamide], the affinity in assay [1] (* assay run with 1 μg of membranes versus 0.25 μg, HEK293 cells expressing the human A2a receptor) corresponds to a Ki of 3.3 nM. The “A2a selectivity” value in assay [2] is recorded as 4.

`COc1cccc2c(C(=O)NCc3cccc(C(C)(C)O)n3)nc(N)nc12` [Example 9, 2-amino-N-[[6-(1-hydroxy-1-methyl-ethyl)-2-pyridyl]methyl]-8-methoxy-quinazoline-4-carboxamide] registered a Ki in assay [1] (setting [3]) of 0.4 nM. In assay [2], the “A2a selectivity” value is listed as 764.

In assay [1] (setting [3]), `COc1cccc2c(C(=O)NCc3cccc(-c4ccccn4)n3)nc(N)nc12` [Example 10, 2-amino-8-methoxy-N-[[6-(2-pyridyl)-2-pyridyl]methyl]quinazoline-4-carboxamide] displayed a Ki of 1.2 nM. Moreover, the “A2a selectivity” value in assay [2] is 113.

`COc1cccc2c(C(=O)NCc3nc(C)ccc3C)nc(N)nc12` [Example 11, 2-amino-N-[(3,6-dimethyl-2-pyridyl)methyl]-8-methoxy-quinazoline-4-carboxamide] gave a Ki in assay [1] (setting [3]) of 0.2 nM. For the same molecule, in assay [2], the “A2a selectivity” value is listed as 208.

The molecule `COc1cccc2c(C(=O)NCc3cccc4cccnc34)nc(N)nc12` [Example 12, 2-amino-8-methoxy-N-(8-quinolylmethyl)quinazoline-4-carboxamide] came in with a Ki in assay [1] (setting [3]) of 0.2 nM. Moreover, in assay [2], the “A2a selectivity” value was 32.

Regarding `CCn1cccc(CNC(=O)c2nc(N)nc3c(OC)cccc23)c1=O` [Example 13, 2-amino-N-[(1-ethyl-2-oxo-3-pyridyl)methyl]-8-methoxy-quinazoline-4-carboxamide], the Ki in assay [1] (setting [3]) stood at 0.2 nM. In assay [2], the “A2a selectivity” value turned out to be 112.

Regarding `COc1cccc2c(C(=O)NCc3cccc(CO)n3)nc(N)nc12` [Example 14, 2-amino-N-[[6-(hydroxymethyl)-2-pyridyl]methyl]-8-methoxy-quinazoline-4-carboxamide], in assay [1] (setting [3]), the Ki was found to be 4.6 nM. For the same molecule, the “A2a selectivity” value in assay [2] is reported as 273.

In turn, `COc1cccc2c(C(=O)NCc3cccc(C)n3)nc(N)nc12` [Example 15, 2-amino-8-methoxy-N-[(6-methyl-2-pyridyl)methyl]quinazoline-4-carboxamide] displayed an inhibitory constant (Ki) in assay [1] (setting [3]) of 0.5 nM. Also, the “A2a selectivity” value in assay [2] worked out at 319.

Molecule `COc1cccc2c(C(=O)NCc3cccc4ccncc34)nc(N)nc12` [Example 16, 2-amino-N-(8-isoquinolylmethyl)-8-methoxy-quinazoline-4-carboxamide] had a Ki in assay [1] (setting [3]) of 0.3 nM. For the same molecule, in assay [2], the “A2a selectivity” value came to 114.

In assay [1] (setting [3]), `COc1cccc2c(C(=O)NCc3cccc(C)c3)nc(N)nc12` [Example 17, 2-amino-8-methoxy-N-(m-tolylmethyl)quinazoline-4-carboxamide] returned a Ki of 0.4 nM. Also, the “A2a selectivity” value in assay [2] worked out at 184.

`COc1cccc2c(C(=O)NCc3cccc(C(F)(F)F)n3)nc(N)nc12` [Example 18, 2-amino-8-methoxy-N-[[6-(trifluoromethyl)-2-pyridyl]methyl]quinazoline-4-carboxamide] had a Ki in assay [1] (setting [3]) of 0.4 nM. Also, the “A2a selectivity” value in assay [2] is given as 412.

Turning to `COc1cccc2c(C(=O)NCc3ncccc3C(F)(F)F)nc(N)nc12` [Example 19, 2-amino-8-methoxy-N-[[3-(trifluoromethyl)-2-pyridyl]methyl]quinazoline-4-carboxamide], the affinity in assay [1] (setting [3]), expressed as Ki, was 2.6 nM. In assay [2], the “A2a selectivity” value is given as 53.

The molecule `Nc1nc(C(=O)NCc2cccc3c2NCCC3)c2cccc(F)c2n1` [Example 90] displayed a Ki in assay [1] (setting [3]) of 3 nM.
